Results on 9 compounds are retold here after patent EP0054593A1, “Myocardium protecting pyrrole derivatives with anti-arythmic and anti-platelet aggregation activity, process for their preparation and medicines containing them” (SANOFI S.A., priority 1980, dated 1982).

Broadly, the inhibition is how much of the control response was suppressed.

The test system of test [1] is tachycardie ventriculaire. The test can be described thus: Ventricular arrhythmia model: coronary metal coil, myocardial infarction, telemetered ECG. The following applies: 50 mg/kg P.O., dogs; for Effet sur la tachycardie ventriculaire: rythme sinusal ou amélioration: sinus rhythm restored or improvement of the ratio of abnormal to sinus complexes. The test is classed as in vivo, chiens. The text has this:
Le pouvoir antiarythmique de ces molécules a été apprécié sur un modèle animal d'arythmie ventriculaire.
Des chiens bâtards sont anesthésiés puis soumis à la mise en place, par cathétérisme rétrograde, d'une spire métallique dans le lit coronarien. Dans le même temps, un micro-émetteur modulateur de fréquence est fixé au dos de l'animal et relié à deux électrodes précordiales.
L'animal remis dans son box accuse alors une thrombose progressive de l'artère interventriculaire antérieure. Ainsi, se constitue un infarctus myocardique localisé et transmural, générateur d'une activité électrique anormale, mais répétitive : tachycardie ventriculaire.
Dans cet état, les drogues sont administrées per os (P.O.) et le système télémétré permet de suivre en temps réel l'évolution de la disrythmie.
Un comptage des complexes systoliques sinusaux et pathologies est assuré en permanence par des procédés électroniques.
Ainsi, peut-on quantifier la qualité et la durée d'action du produit.
L'activité des produits essayés sur la tachycardie ventriculaire est exprimée soit par le rétablissement du rythme sinusal, soit par une amélioration notable du rapport : • nombre de complexes anormaux
nombre de complexes sinusaux

For test [2], the system named is agrégation plaquettaire induite par le collagène. Nature of the test: In vitro collagen-induced platelet aggregation in platelet-rich plasma (Born turbidimetric technique). The test is classed as cell-based, humain. The following applies: for IC50: 10 min; for inhibition at 100 µM: concentration 100 µM, inhibition of maximal aggregation amplitude versus control, read-out: % d'inhibition. The text has this:
(§1) Les études in vitro et ex vivo de l'activité antiagrégante ont été réalisées selon la technique turbidiurétrique de Born.
Les études in vitro ont été réalisées sur du plasma riche en plaquettes (PRP) préparé à partir de sang veineux humain.
Les diverses solutions des produits à tester ont été préparées extemporanément. Les CM 7753, 7611, 7640, 7921, 7954, - 40018, 40020 ont été dissous à une concentration de 2 x 10^-2 M dans l'acétone.
Des solutions aqueuses à 2 x 10 ^-3 M ont été préparées pour les CM 40169, 40178, 2 µl des solutions acétoniques des produits ou 40 µl des solutions aqueuses sont incubés pendant 10 min à 37°C avec, respectivement, 388 et 350 µl de PRP. Après cette période d'incubation, 10 µl de la solution de collagène à 40 µg/ml sont additionnés. Pour les contrôles, 2 µl d'acétone ou 40 µl d'eau distillée sont utilisés.
(§2) L'agrégation plaquettaire a été quantifiée par la détermination graphique de l'amplitude maximale d'agrégation (AM).
(§3) Les résultats sont exprimés en % d'inhibition de ce paramètre calculé par rapport au contrôle (100 % d'agrégation). Résultats

In another test the test system is ADP. The test can be described thus: Ex vivo ADP-induced platelet aggregation after oral dosing (Born technique). Format: in vivo, babouin. The following applies: baboons, 50 mg/kg/j oral. On the procedure:
as §1
(§4) Les études ex vivo chez le babouin ont porté uniquement sur l'activité antiagrégante du CM 7753. Dans ce cas, le CM 7753 est administré par voie buccale à raison de 50 mg/kg/j pendant une période de 5 jours.
(§5) Les prélèvements sanguins pour l'analyse de l'agrégation plaquettaire ont été effectués avant l'administration du produit, 2 h après l'administration de 50 mg/kg au jour 1 et 2 h après la dernière administration au jour 5.
as §2, §3

Test [3] concerns agrégation plaquettaire induite par le collagène. The test can be described thus: Ex vivo collagen-induced platelet aggregation after oral dosing (Born technique). The following applies: Papio, 120 h, four baboons, 50 mg/kg/j oral, after 5 days of treatment, read-out: % d'inhibition. Format: in vivo, babouin. The procedure:
as §1, §4, §5, §2, §3

Like-named read-outs stand apart in the source and are kept apart here.

With `Cc1ccc(C)n1C(CCN(C(C)C)C(C)C)(C(N)=O)c1ccccc1` (stereo not drawn) [CM 7640], in test [1], the “Effet sur la tachycardie ventriculaire: duration of effect” value was “Rythme sinusal ou amélioration à 90 % durant 90 min” and the “Effet sur la tachycardie ventriculaire: rythme sinusal ou amélioration” value is recorded as “Rythme sinusal ou amélioration à 90 % durant 90 min”. This compound had an IC50 in test [2] of around 30 µM.

Take `Cc1ccc(C)n1C(CCN1CCN2CCCC2C1)C(N)=O` (stereo not drawn) [CM 40018, (Diméthyl-2,5 pyrrolyl)-1 (diaza-1,4 bicyclo[4.3.0]-nonyl-4)-4 butyramide]: the inhibition at 100 µM in test [2] (human PRP, collagen) was in the range of 20 to 30%. For the compound `Cc1ccc(C)n1C(CCN(C(C)C)C1CCCCC1)C(N)=O` (stereo not drawn) [CM 40169], the inhibition at 100 µM in test [2] (human PRP, collagen) fell in the range of 20 to 30%.

With `CCC(C)N(CCC(C(N)=O)n1c(C)ccc1C)C(C)CC` (stereo not drawn) [CM 40178], the inhibition at 100 µM in test [2] (human PRP, collagen) was 20 to 30%. For the compound `Cc1ccc(C)n1C(CCN(C(C)C)C(C)C)C(N)=O` (stereo not drawn) [CM 7753, (Diméthyl-2,5 pyrrolyl-1)-2 diisopropylamino-4 butyramide], in the test on ADP, the “activité antiagrégante vis-à-vis de l'ADP” value was “activité antiagrégante de moindre importance”. The “Effet sur la tachycardie ventriculaire: rythme sinusal ou amélioration” value in test [1] was 90%. Also, the IC50 in test [2] (human PRP, 10 min incubation at 37°C, collagen, approximate value, read-out: concentration qui inhibe à 50 % l'agrégation plaquettaire) is around 100 µM. Besides, in test [3], the inhibition at 50 mg/kg turned out to be 100%.

As for `CC(C)N(CCC(C(N)=O)(c1ccccc1)n1cccc1)C(C)C` (stereo not drawn) [CM 7611, Phényl-2 (pyrrolyl-l)-2 diisopropylamino-4 butyramide], in test [1], the “Effet sur la tachycardie ventriculaire: rythme sinusal ou amélioration” value is 70-90%. This compound gave an IC50 in test [2] of around 30 µM.

As for `CCc1ccc(CC)n1C(CCN(C(C)C)C(C)C)C(N)=O` (stereo not drawn) [CM 40020], the inhibition at 100 µM in test [2] (human PRP, collagen) fell in the range of 20 to 30%. Turning to `CC(C)N(CCC(C(N)=O)n1cccc1)C(C)C` (stereo not drawn) [CM 7921], the inhibition at 100 µM in test [2] (human PRP, collagen) fell in the range of 20 to 30%.

As to `CC(C)N(CCC(C(N)=O)(c1ccccn1)n1cccc1)C(C)C` (stereo not drawn) [CM 7954, (Pyridyl-2)-2 (pyrrolyl-l)-2 diisopropylamino-4 butyramide], the IC50 in test [2] (read-out: concentration qui inhibe à 50 % l'agrégation plaquettaire) was around 100 µM.
